The record followed here is patent EP0221719A2, “Novel cephalosporin derivatives, processes for their preparation and pharmaceutical compositions containing them” (BIOGAL GYOGYSZERGYAR, priority 1985, dated 1987).

The subject of one experiment is Pseudomonas aeruginosa. Nature of the experiment: microbe, parasite or virus in culture. Particulars: 24 h.
Experiment [1] concerns Salmonella typhi murium and Proteus vulgaris. Nature of the experiment: In vivo effectivity in artificially infected mice (protection test). Particulars: for living animal / group 1st day / living animal / group 3rd day: groups of 5 infected mice; for ED50: sc.
In another experiment the test system is Escherichia coli K12. Description: MIC determination (antibacterial activity in vitro). The conditions noted are these: after 24 hours. Format: cell-based.
The subject of another experiment is Escherichia coli 6R. Described as above. Format: cell-based. Particulars: 24 h.
The subject of experiment [2] is Escherichia coli poliresistens. The experiment is described as above. Particulars: 24 h. Format: cell-based.
The test system of the next experiment is Escherichia coli R-222. Described as above. Particulars: R222, 24 h. Format: cell-based.
Another experiment has as its system Escherichia coli R-15. Described as above. Format: cell-based. The conditions noted are these: R15, after 24 hours.
The test system of experiment [3] is Klebsiella sp. ATCC 10031. The description is as above. In kind it is cell-based. Particulars: ATCC10031, after 24 hours.
In a further experiment the test system is Proteus vulgaris XL. The experiment is described as above. Particulars: after 24 hours. Format: cell-based.
The subject of experiment [4] is Pseudomonas pyocyanea NTCT 10.490. The experiment is described as above. Format: cell-based. Particulars: Pseudomonas aeruginosa, NTCT10.490, after 24 hours. The procedure:
The MIC values expressed in mcg./mi. of SZMFO 110 after 24 hours are contained in Table 1.

The next experiment relates to Salmonella typhi murium. The description is as above. Format: cell-based. The conditions noted are these: Salmonella enterica, 24 h.
The subject of a further experiment is Shigella sonnei. The description is as above. In kind it is cell-based. Particulars: after 24 hours.
Experiment [5] relates to Bacillus subtilis ATCC 6633. The experiment is described as above. Format: cell-based. Particulars: ATCC6633, after 24 hours.
Experiment [6] relates to Staphylococcus aureus 1110. The description is as above. In kind it is cell-based. Particulars: after 24 hours.
Another experiment has as its system Staphylococcus aureus 53. The description is as above. The conditions noted are these: after 24 hours. Format: cell-based.
Experiment [7] deals with Staphylococcus aureus Smith. Described as above. Format: cell-based. The conditions noted are these: after 24 hours.
Experiment [8] concerns Staphylococcus epidermidis A CC I-12228. Described as above. In kind it is cell-based. Particulars: ACCI12228, after 24 hours.
Experiment [9] has as its system Streptococcus haemolyticus Pneumo. Described as above. The conditions noted are these: after 24 hours. Format: cell-based.
Experiment [10] has as its system Streptococcus haemolyticus A118. The experiment is described as above. The conditions noted are these: after 24 hours. In kind it is cell-based.
Experiment [11] deals with Streptococcus haemolyticus Robb. Described as above. In kind it is cell-based. Particulars: after 24 hours.
In experiment [12] the test system is Clostridium perfringens Cp. Nature of the experiment: microbe, parasite or virus in culture. In kind it is cell-based. Particulars: 24 h.

As usually defined, the ED50 is the dose that gives a 50% effect, or the effect in half of the subjects.

Each structure is given as a SMILES string. Values after ≈ are worked out from the molar mass of the structure shown. Counter-ions that a name gives are not always drawn. Like-named read-outs stand apart in the source and are kept apart here.

With `CO/N=C(\C(=O)N[C@@H]1C(=O)N2C(C(=O)O)=C(CSc3nnnn3C)CS[C@H]12)c1csc(N)n1` [Cefmenoxime, (6R,7R)-7-/2-(2-amino-4-thiazolyl)glyoxylamido/-3-//(1-methyl-1H-tetrazol-5-yl)thio/methyl/-8-oxo-5-thia--1-azabicyclo/4.2.0/oct-2-ene-2-carboxylic acid 7^2-(Z)-(O-methyloxime)], the MIC with Pseudomonas aeruginosa is 64 µg/mL (≈ 125 µM).

Consider `CCN1CCN(C(=O)N[C@@H](C(=O)N[C@@H]2C(=O)N3C(C(=O)O)=C(CSc4nnnn4C)CS[C@H]23)c2ccc(O)cc2)C(=O)C1=O` [Cefoperazone, 7-[D-(-)-α-(4-ethyl-2,3-dioxo-1-piperazinecarboxamido)-α-(4-hydroxyphenyl)-acetamido]-3-[[(1-methyl-1H-tetranol-5-yl)thio]methyl]-ceph-3-em-4-carboxylic acid, reference compound], for which the MIC in the experiment with Pseudomonas aeruginosa was found to be 8 µg/mL (≈ 12.4 µM). In addition, the “living animal / group 1st day” value in experiment [1] (0.2 mg./kg. subcutaneously) is 1; in experiment [1] (1 mg./kg. subcutaneously), 4; in [1] (5 mg./kg. subcutaneously), 5; in experiment [1] (25 mg./kg. subcutaneously), 4; in [1] (100 mg./kg. subcutaneously) it was 5. Further, the “living animal / group 3rd day” value in [1] (0.2 mg./kg. subcutaneously) is given as 1; in [1] (1 mg./kg. subcutaneously) it was 1; in [1] (5 mg./kg. subcutaneously), 3; in experiment [1] (25 mg./kg. subcutaneously), 4; in [1] (100 mg./kg. subcutaneously) it was 4. In addition, the median effective dose (ED50) in [1] (24 h, read-out: ED50 1st day) turned out to be 0.44 mg/kg; in [1] (72 h, read-out: ED50 3rd day), 3.7 mg/kg.

The compound `CO/N=C(\C(=O)N[C@@H]1C(=O)N2C(C(=O)O)=C(COC(C)=O)CS[C@H]12)c1csc(N)n1` [Cefotaxime, 7-[2-(2-amino-4-thiazolyl)-2-methoxy-iminoacetamido]-cephalosporanic acid] had an MIC against Pseudomonas aeruginosa of 32 µg/mL (≈ 70.3 µM).

Regarding `CC(C)(ON=C(C(=O)NC1C(=O)N2C(C(=O)[O-])=C(C[n+]3ccccc3)CSC12)c1csc(N)n1)C(=O)O` [Ceftazimide, 1-//(6R,7R)-7-/2-(2-amino-4-thiazolyl)glyoxylamido/--2-carboxy-8-oxo-5-thia-1-azabicyclo/4.2.0/oct-2-ene--3-yl/methyl/pyridinium hydroxide inner salt 7^2-(Z)-/0-(1-carboxy-1-methylethyl)oxime/], the MIC in the experiment with Pseudomonas aeruginosa stood at 4 µg/mL.

In the experiment with Pseudomonas aeruginosa, `CO/N=C(\C(=O)N[C@@H]1C(=O)N2C(C(=O)O)=CCS[C@H]12)c1csc(N)n1` [Ceftizoxime, (6R,7R)-7-/2-(2-amino-4-thiazolyl)glyoxylamido/-8--oxo-5-thia-l-azabicyclo/4.2.0/oct-2-ene-2-carboxylic acid 7^2-(Z)-(0-methyloxime)] gave an MIC of 64 µg/mL (≈ 167 µM).

As to `CON=C(C(=O)NC1C(=O)N2C(C(=O)O)=C(CSc3nnc(S)s3)CSC12)c1csc(N)n1` (stereo not drawn) [SZMFO 110, 7β-[2-(2-aminothiazol-4-yl)-(Z)-2-methoxyimino-acetamido]-3-[(2-mercapto-1.3.4-thiadiazol-5-yl)thiomethyl]-ceph-3-em-4-carboxylic acid], the MIC against Escherichia coli K12 amounted to 0.03 µg/mL (≈ 0.055 µM); against Escherichia coli 6R, 0.25 µg/mL (≈ 0.458 µM); in experiment [2], 0.16 µg/mL (≈ 0.293 µM); against Escherichia coli R-222, 0.03 µg/mL (≈ 0.055 µM); in the experiment on Escherichia coli R-15, 0.16 µg/mL (≈ 0.293 µM); in experiment [3], 0.007 µg/mL (≈ 0.0128 µM). Also, the MIC is 0.007 µg/mL (≈ 0.0128 µM) against Proteus vulgaris XL; 0.31 µg/mL (≈ 0.568 µM) in experiment [4]; 0.06 µg/mL (≈ 0.11 µM) against Salmonella typhi murium; 0.06 µg/mL (≈ 0.11 µM) with Shigella sonnei; 0.08 µg/mL (≈ 0.147 µM) in [5]; 6.2 µg/mL (≈ 11.4 µM) in experiment [6]. Further, the MIC is 1.6 µg/mL (≈ 2.93 µM) against Staphylococcus aureus 53; 1.25 µg/mL (≈ 2.29 µM) in experiment [7]; 0.6 µg/mL (≈ 1.1 µM) in experiment [8]; 0.03 µg/mL (≈ 0.055 µM) in experiment [9]; 0.03 µg/mL (≈ 0.055 µM) in experiment [10]; 0.03 µg/mL (≈ 0.055 µM) in experiment [11]. For the same compound, the figures for the MIC (in experiment [12]; with Pseudomonas aeruginosa) were 0.004 µg/mL (≈ 0.00733 µM) and 0.31 µg/mL (≈ 0.568 µM), respectively. For the same compound, the “living animal / group 1st day” value turned out to be 0 in [1] (0.2 mg./kg. subcutaneously); 4 in experiment [1] (1 mg./kg. subcutaneously); 5 in [1] (5 mg./kg. subcutaneously); 5 in experiment [1] (25 mg./kg. subcutaneously); 5 in experiment [1] (100 mg./kg. subcutaneously). Further, the “living animal / group 3rd day” value in experiment [1] (0.2 mg./kg. subcutaneously) was determined as 0; in experiment [1] (1 mg./kg. subcutaneously), 4; in experiment [1] (5 mg./kg. subcutaneously), 4; in experiment [1] (25 mg./kg. subcutaneously) it was 5; in experiment [1] (100 mg./kg. subcutaneously), 4. The ED50 worked out at 0.62 mg/kg in [1] (24 h, read-out: ED50 1st day) and 0.62 mg/kg in experiment [1] (72 h, read-out: ED50 3rd day).
